Earlier results, collected in PubChem BioAssay AID1259409 (Chemical Carcinogenesis Research Information System (CCRIS), 2018).

System: rodent chemically induced tumor inhibition, incidence and multiplicity
Test: CCRIS tumor inhibitor studies
Settings: Route [Inhibitor]: ORAL, Species: RAT, Promoter: NONE USED

## O=c1cc[nH]c(=O)[nH]1
Carcinogen: 7,12-DIMETHYLBENZ[A]ANTHRACENE, 57-97-6, Dose [Inhibitor]: 1.5% IN 20% PROTEIN DIET (STUDY DURATION: 100 D), Strain/Sex: STRAIN-CB/FEMALE, Target Tissue: Type of Lesion: MAMMARY GLAND: TUMOR, Dose [Carcinogen]: 15 MG IN 1 ML ARACHIS OIL 1/2 WK FOR 3 DOSES STARTING AT 30 D OF AGE
  tumour outcome (control, treated, inhibition, significance): 18/18 (100%), 18/21 (86%), 14%, not calculated
Carcinogen: N-METHYL-N-NITROSOUREA, 684-93-5, Dose [Inhibitor]: 0, 3% IN DIET FOR 20 WK BEGINNING POST LAST CARCINOGEN DOSE (STUDY DURATION: 24 WK), Strain/Sex: F344/MALE, Target Tissue: Type of Lesion: LUNG: ADENOMA, Dose [Carcinogen]: 20 MG/KG 2/WK FOR 4 WK
  tumour outcome (control, treated, inhibition, significance): 3/11 (27%), 0/9 (0%), 100%, not significant
Carcinogen: N-METHYL-N-NITROSOUREA, 684-93-5, Dose [Inhibitor]: 0, 3% IN DIET FOR 20 WK BEGINNING POST LAST CARCINOGEN DOSE (STUDY DURATION: 24 WK), Strain/Sex: F344/MALE, Target Tissue: Type of Lesion: THYROID: ADENOMA, CARCINOMA, Dose [Carcinogen]: 20 MG/KG 2/WK FOR 4 WK
  tumour outcome (control, treated, inhibition, significance): 6/11 (55%), 1/11 (10%), 82%, p>0.05
